Measurements published in patent US9833425B2, “Gentisic acid is used to improve systemic hemodynamics, hepatic mitochondrial function and lactate acidemia in patients with septic shock” (priority 2015, dated 2017).
Entries after “also recorded” stand apart in the source; their conditions may differ. Where two headings read alike, the source gives them in different places. Marks after values point to notes of the source that are not given here.

Experiments:
[1] = test system: hepatic mitochondria; assay: Oxygen consumption rates of hepatic mitochondria harvested after in vivo treatment (Seahorse XF24); parameters: species or system dog; settings: treated septic dogs; FCCP 4 uM
Protocol: After completion of the in-vivo measurements, we administered sodium pentobarbital (110 mg/kg) to euthanize the animal. In a subset of animals of each group, we immediately harvested a piece of liver and isolated the mitochondria as described by Schnaitman and Greenawalt (23). Briefly, we minced the extracted liver in mitochondrial isolation buffer (MSHE) that includes 70 mM sucrose, 210 mM mannitol, 5 mM HEPES, 1 mM EGTA, and fatty acid free bovine serum albumin (BSA). We then disrupted the tissue using a drill-driven glass/Teflon dounce homogenizer. We centrifuged the homogenate three times, after which we re-suspended the final pellet in a minimal volume of MSHE+BSA and determined protein (mg/ml). We diluted the mitochondrial preparation in cold mitochondrial assay solution (MAS) that contained 70 mM sucrose, 220 mM mannitol, 10 mM KH2PO4, 5 mM MgCl2, 2 mM HEPES, 1 mM EGTA, and BSA for plating directly onto the custom Seahorse 24-well culture dish (˜20 ug mitochondrial protein/50 ul per well; see further below). After centrifugation of the plate and addition of appropriate substrates, we viewed the mitochondria under a microscope to ensure consistent adherence to the well. We then transferred the plate to the XF24 Analyzer for initiation of the protocol as described below (17).
To examine mitochondrial function in this model, we used a novel new technology that is capable of measuring dynamic changes in mitochondrial function, not easily attainable by other technologies (17). The Seahorse® XF24 extracellular flux analyser (Seahorse Bioscience, MA, USA) refines the technology by which mitochondrial oxygen consumption can be measured. This technology uses a piston to reversibly enclose a small volume (7 ul) above the mitochondria that can monitor oxygen uptake in that volume for 2-5 min, then raises the piston, allowing the bulk incubation medium (˜1 ml) to re-equilibrate. The ability to make up to 4 additions during the experiment allows mitochondrial respiration to be measured under various metabolic conditions. This piece of equipment has never been used to measure mitochondrial function in SS.
In this protocol, we sequentially measured mitochondrial function under various metabolic conditions (17). To obtain basal OCR, we first added a substrate to the preparation that contained pyruvate (10 mM) and malate (2 mM). We then added ADP (adenosine-diphosphate; 4 mM) that allows ATP synthase to function, producing an increase in OCR (coupled OCR) that is termed “state3ADP”. When the ATP/ADP ratio approaches equilibrium, pmf rises, after which proton reentry through the synthase stops and respiration slows. We terminated coupled respiration (i.e. state3ADP) by the addition of the ATP synthase inhibitor oligomycin (2.0 uM) in which we achieved “stateoligomycin” where ATP recycling cannot contribute and there is a stable decrease in OCR. We then added the protonophore, FCCP (4 uM; carbonyl cyanide p-trifluoromethoxy-phenylhydrazone). FCCP leads to uncoupled respiration in which we previously titrated the concentration of FCCP to yield a maximal effect. In mitochondria in which ATP synthase activity is a limiting factor, uncoupled respiration may be greater than coupled respiration. […] We finally added rotenone (R; 2 uM) and antimycin A (AA; 2 uM) which are inhibitors of the electron transport chain (ETC) complexes, I and III, respectively. When added to the mitochondrial preparation, these inhibitors produce a marked decline in mitochondrial respiration since the electron transport chain is inhibited.
With each treatment group, we obtained measurements of basal OCR, coupled OCR (i.e. state3ADP), and maximal OCR. In addition, we calculated coupled and uncoupled respiratory control ratios from state3ADP/stateoligomycin and uncoupled respiration/state FCCP/stateoligomycin, respectively. […]

[2] = test system: canine model of septic shock (Pseudomonas aeruginosa); settings: for Arterial pH / LD (lactate dehydrogenase) / Oxygen delivery: mean ± SD
Protocol: We used a bacteremic model of Pseudomonas aeruginosa in this study as previously described (20). We used this particular model, since we wanted to measure mitochondrial function and LA under conditions of an acute and intensive inflammatory response analogous to that which would occur in a severe bout of SS in the clinical condition. […] Over the course of the experiment, we studied the animals (18 to 26 kg) while anesthetized with sufentanil citrate (0.05-0.3 ug/kg/min) and midazolam (5 ug/kg/min), and while being ventilated receiving 100% oxygen to maintain arterial around PO2 ˜400 mmHg. We adjusted the ventilator rate over the course of the study to attenuate the development of the metabolic acidosis that is usually observed (20).
To assess hemodynamics in this model, we inserted vascular catheters under sterile conditions as previously described (20), after which we connected the catheters to pressure transducers (Cobe, Argon) that were referenced relative to the left atrium and connected to a chart recorder (Astro-Med, W Warwick, R.I.). To measure MAP, we inserted a polyethylene catheter into the right femoral artery, while to measure pulmonary vascular pressures, we inserted a Swanz-Ganz catheter (Edwards Lifesciences, Irvine, Calif.) by percutaneous techniques through the right jugular vein. From the Swanz-Ganz catheter, we obtained measurements of pulmonary arterial pressure (Ppa), wedge pressure (Pwp), and right atrial pressure (Rap), as well as determinations of thermodilution cardiac output (CO).
From the hemodynamic measurements, we calculated SV from CO/heart rates (HR), stroke work (SW) from [SV*(MAP−Pwp)], and systemic vascular resistance (SVR) from [(MAP-Rap)/CO)*80]. We also normalized measurements of SV, SW, and CO and organ oxygen delivery (DO2) to body weight. We calculated DO2 from CO×Hb×1.34 ml oxygen per gram of Hb, since Hb was 100% saturated at a PO2 of ˜400 mmHg. From the arterial catheter and distal port of the Swanz-Ganz catheter, we also took arterial and mixed venous blood samples, respectively, for analyses of PO2, PCO2, and pH.
In addition, we placed another polyethylene catheter into the left jugular vein, also by percutaneous techniques, for infusion of the bacteria and intravenous fluids and for obtaining blood chemistry and hematological samples. Since the baseline Pwp found in this model usually averages≈8-10 mmHg, we infused normal saline solution as necessary to maintain Pwp relatively constant over the duration of this study. […] The Clinical Chemistry Laboratory at the Health Sciences Centre performed the clinical laboratory tests.
We included 5 groups of animals in the initial phase of this study. These groups included a septic control group, a non-septic control group, a norepinephrine (NE) septic group, a gentisic acid sodium salt (GSS) septic group, and a GSS non-septic group. In each group, we made baseline measurements of hemodynamics and blood parameters after approximately 1 hr period of stability. In the septic groups, after initiation of the bacterial infusion, we repeated the measurements in the septic shock condition. […] In the septic control group, after the SS condition, we started an infusion of 5% dextrose in water (D5W) at approximately 40 ml/hr for the remainder of the study, since D5W was the diluent for both the NE and GSS treatments.
In all groups, we then made posttreatment measurements at 3 hrs and 5 hrs after completion of the septic shock/sham-shock determinations.
In this supplemental study, we examined the effect of gallic acid on hemodynamics and mitochondrial function in our Pseudomonas aeruginosa model in a manner identical to that described for GSS treatment.

[3] = test system: mitochondrial complex IV (cytochrome c oxidase); assay: Enzymatic activity of hepatic mitochondrial complex IV; assay type: biochemical, dog; settings: hepatic mitochondria of treated septic dogs; mean ± SD
Source text: As part of our assessment of mitochondrial function, we also measured the enzymatic activity of hepatic mitochondrial complex IV based on the rationale of Levy et al (10), since these investigators considered that dysfunction of complex IV was the most important determinant of abnormal mitochondrial function in SS. We determined complex IV activity spectrophotometrically by a temperature-controlled Ultrospec™ 2100 ultraviolet-visible spectrophotometer (Biopharmacia Biotech, Uppsala, Sweden) (17). Complex IV activity was measured at 25° C. by monitoring the absorbance decrease of reduced cytochrome c at 550 nm.

[4] = septic dogs, 3 hrs posttreatment
[5] = septic dogs, 5 hrs posttreatment
[6] = septic dogs, baseline (before bacteria/treatment)
[7] = septic dogs, septic shock (before treatment)

SMILES: NC[C@H](O)c1ccc(O)c(O)c1 [NE, norepinephrine]
- maximal (uncoupled) respiration (OCR after FCCP) of hepatic mitochondria [1]: restore the increase in OCR in response to FCCP
- effect of treatment on troponin (index of myocardial injury) ([2]; dog, in vivo): increased in the NE septic group
- effect of treatment on stroke work index ([2]; septic dogs, 3 hr and 5 hr vs septic control group, did not reach statistical significance): an increase in stroke work index
- effect of treatment on systemic vascular resistance (SVR) ([2]; septic dogs, 3 hrs and 5 hrs posttreatment vs septic shock condition): increased SVR back to the baseline value; also recorded: an increase in SVR
- Arterial pH [2, 4]: 7.20 ± .04*^+$
- LD (lactate dehydrogenase) [2, 4]: 315 ± 113*^+$ IU
- Oxygen delivery [2, 4]: 29 ± 8 mL/min/kg
- Arterial pH [2, 5]: 7.16 ± 0.06*^+$
- LD (lactate dehydrogenase) [2, 5]: 409 ± 167*^+$^ IU
- Oxygen delivery [2, 5]: 28 ± 10 mL/min/kg
- Arterial pH [2, 6]: 7.38 ± .05
- LD (lactate dehydrogenase) [2, 6]: 43 ± 23 IU
- Oxygen delivery [2, 6]: 20 ± 3 mL/min/kg
- effect of treatment on mean arterial pressure (MAP) ([2]; septic dogs, infusion started at septic shock condition, 3 hr and 5 hr post treatment): increased MAP back to the baseline value; also recorded: return in MAP to baseline
- effect of treatment on blood lactate concentration ([2]; septic dogs, over the course of the study): serum lactate increased; also recorded: significantly increased
- Arterial pH [2, 7]: 7.26 ± .04*^+$
- LD (lactate dehydrogenase) [2, 7]: 177 ± 97*^+ IU
- Oxygen delivery ([2]; septic dogs, septic shock condition (before treatment)): 26 ± 11 mL/min/kg
- effect of treatment on oxygen delivery (DO2) ([2]; septic dogs, vs septic control group and gentisic septic group): increase in DO2
- enzymatic activity of mitochondrial complex IV [3]: 3.89±0.33 umol/min/mg protein
